In patent US20090042783A1, “APO E ANALOGS AND METHODS FOR THEIR USE” (priority 2004, published 2009):
Non-standard residues stand in square brackets, D forms with d. Residues, ends and D or L forms follow the SMILES beside them. Aib = CC(C)(N)C(=O)O

Key:
[1] = test system: BV2 microglial cells
[2] = Maximum tolerated dose, tail vein injection; conditions: mouse, in vivo, intravenous, highest dose with death of no mice in 24 hours, tail vein
Method: (§1) Candidate compounds are then be screened in our closed head injury model of traumatic brain injury by intravenous dosing at 30 minutes post injury. Novel compounds are initially tested at one half their maximum tolerated dose (0.5×MTD). The maximum tolerated dose (MTD) is the dose of peptide given in a tail vein injection that results in no death of mice. Death is defined as a complete lack of breathing and complete unresponsiveness to external stimuli such as tail pinch and/or toe pinch for a period of 10 or more minutes. Animals are given an initial dose of 1 mg/kg of peptide analog or non-peptide mimetic and observed continuously for 15 minutes and then at 15 minute intervals for 2 hours and then at 1 hour intervals for 4 hours more. Animals are also observed at 24 hours post injection.
(§2) The maximum tolerated dose is the maximum dose at which no animals die at any of these observation times. As an example of this procedure, the MTD is determined empirically by initially dosing groups of 3 mice at 1 mg/kg. If this dose is tolerated, then another group of 3 mice is dosed at 3 mg/kg. If this dose is tolerated, then another group of 3 mice is dosed at 9 mg/kg, etc. If, for example, 9 mg/kg is not tolerated because 1 or more animal died, then doses in-between 3 mg/kg and 9 mg/kg are investigated until the MTD is found. Once the MTD is empirically determined, it is confirmed in another group of 7 mice for a total of 10 mice being tested at the MTD and all of which must not die to confirm that this is the MTD.

[3] = test system: mice; assay: Maximum tolerated dose, tail vein injection; conditions: mouse, in vivo
Method: as §1, §2

[4] = test system: RAW 264.7 macrophages; assay: NO production and iNOS mRNA in C. rodentium-stimulated macrophages; type: cell-based, mouse; conditions: C. rodentium lysates; COG1410 2 μM, COG4502 0.1-5 μM
From the text: RAW 264.7 cells were stimulated with French-pressed lysates of C. rodentium at a multiplicity of infection of 100. […] B, RT-PCR for iNOS.
We used bacterial lysates to more closely mimic the bacterial products to which lamina propria macrophages are likely to be exposed.

[5] = mouse, in vivo
From the text: We have employed a similar LC/MS procedure to identify fragments of COG1410 that may arise by degradation processes.

[6] = test system: RAW 264.7 macrophages
[7] = in vivo; conditions: male, C57B1/6, mouse, 0.4 mg/kg
[8] = test system: mice with traumatic brain injury; assay: Closed head injury model of traumatic brain injury (rotorod, Morris Water Maze)
Method: C57Bl/6J male mice (The Jackson Laboratory, ME), 12-16 weeks of age and weighing 24-32 g, are used for all experiments. Anesthesia is first induced with isoflurane in 30% O2/balance N2. The trachea is intubated and the lungs mechanically ventilated with 1.6% isoflurane in 30% O2/balance N2. Temperature is monitored with a rectal probe and maintained at 36.5° C. with a heat lamp. The right internal jugular vein is cannulated with silicone catheter. […] Intubated animals are then placed prone on a molded acrylic cast (FIG. 6A). […] The scalp is incised and the skull exposed. A concave 3 mm metallic disc is secured to the skull surface (with the concave surface in juxtaposition to the skull) by an adhesive. […] The disc is placed directly midline just caudal to bregma (FIG. 6B). […] The mice are positioned in a stereotactic frame. Although the stereotactactic frame helps to stabilize the animal and exactly calibrate the vertical displacement on impact (3 mm), ear bars are not used due to a much higher rate of skull fracture (or brainstem injury if the head rotates around the axis of the ear bars during impact). The piston is discharged at 6.8±0.2 m/s so as to impact the skull in the acrylic mold to move a maximum of approximately 3 mm (FIG. 6C). Inspired isoflurane is decreased to 0.7% immediately after impact. The scalp was infiltrated with lidocaine and closed with suture. Ophthalmic ointment was applied to the eyes for protection. The incidence of skull fracture is low (approximately 10%), as the metal disk helps to diffuse the impact, and the absence of ear bar fixation allows for displacement of the entire head. Mice were excluded if a depressed skull fracture was observed (incidence of approximately 10%). The animals are allowed to recover spontaneous ventilation then extubated. […] In these mice, arterial blood pressure, blood gas and glucose measurement at baseline, immediately after injury, and 15 minutes after injury are monitored during the recovery period.
Briefly, baseline performance on rotorod is established before the mice are intubated, the skin over the scalp reflected and a controlled cortical impact from a pneumatic impactor given on the midline. The skin is closed with surgical clips and the animals are constantly monitored until awake from anesthesia and then hourly for the next 4 hours. […] Performance on rotorod is tested at 24 hours post impaction and then every day for 5 days and data is presented as described. Groups of 12 mice are used for each compound at 0.5×MTD. […] Novel peptides and non-peptide analogs are also given by tail vein injection.
Daily Rotarod (RR) testing was used to assess short term motor and cerebellar deficit following head injury (Hamm et al., 1994). Mice were held by their tails and placed on the RR facing the wall by using gentle swinging motion while running in a constant speed mode.

With `CC(=O)N[C@@H](C)C(=O)N[C@@H](CO)C(=O)NC(C)(C)C(=O)N[C@@H](CC(C)C)C(=O)N[C@@H](CCCNC(=N)N)C(=O)N[C@@H](CCCCN)C(=O)N[C@@H](CC(C)C)C(=O)NC(C)(C)C(=O)N[C@@H](CCCCN)C(=O)N[C@@H](CCCNC(=N)N)C(=O)N[C@@H](CC(C)C)C(=O)N[C@@H](CC(C)C)C(N)=O` [COG1410, Ac-AS-Aib-LRKL-Aib-KRLL-NH2] (Ac-AS[Aib]LRKL[Aib]KRLL-NH2) the “Biologic Activity relative to COG133” value ([1]; Table 2, preliminary data) was over 5x x COG133, the IC50 ([1]; read-out: IC50, inhibition of nitric oxide release, BV2 cells, LPS for 40 hours, approximate) was about 2000 nM and the MTD at 24 h [2] was 8 mg/kg. For the same molecule, the “Therapeutic Index (ratio of the MTD to the MED)” value [3] was 26, the “NO production (nitrite levels) in macrophage supernatants” value [4] was “inhibition of NO production” and the “Major metabolite in plasma” value [5] was “acetyl-AS-Aib-LRKL-Aib-KR”. The “Concentration at which cell toxicity was noted” value [6] was at least 5 µM, the half-life [7] was 2 min and the “Neuroprotection (rotorod) when administered 120 minutes after TBI” value ([8]; 120 minutes after TBI, vs saline) was “neuroprotective”. The “Minimum effective dose (MED)” value ([8]; lowest dose with statistically significant improvement vs vehicle, preliminary) was 0.3 mg/kg and the “Gain in therapeutic window as compared to COG133” value ([8]; mouse, in vivo) was 4 fold.
